ChEMBL document CHEMBL2406993, “Deconstruction of a nutlin: dissecting the binding determinants of a potent protein-protein interaction inhibitor” (ACS Med Chem Lett, 2013)
Active and inactive are the calls of the source. The calls are words filed in the database; no cut-off is given here.

Assays:
Homo sapiens [1] = organism: Homo sapiens; experiment: Inhibition of [15N]-labeled humanized-Xenopus MDM2 (13-119 amino acids) interaction with p53 at 1 mM by NMR method
[2] = Inhibition of Humanized-Xenopus MDM2 (13-119 amino acids) interaction with p53 by SPR analysis; design: species or system Homo sapiens
Homo sapiens [3] = organism: Homo sapiens; experiment: Inhibition of Humanized-Xenopus MDM2 (13-119 amino acids) interaction with p53 at 1 to 2.5 mM by SPR analysis
Homo sapiens [4] = organism: Homo sapiens; experiment: Inhibition of Humanized-Xenopus MDM2 (13-119 amino acids) interaction with p53 at 100 uM by SPR analysis
Homo sapiens [5] = organism: Homo sapiens; experiment: Inhibition of [15N]-labeled humanized-Xenopus MDM2 (13-119 amino acids) interaction with p53 at 2 mM by NMR method
Homo sapiens [6] = organism: Homo sapiens; experiment: Inhibition of [15N]-labeled humanized-Xenopus MDM2 (13-119 amino acids) interaction with p53 at 0.4 mM by NMR method
Homo sapiens [7] = organism: Homo sapiens; experiment: Inhibition of [15N]-labeled humanized-Xenopus MDM2 (13-119 amino acids) interaction with p53 at 0.5 mM by NMR method

## CC1=N[C@@](C)(c2ccc(Cl)cc2)[C@@](C)(c2ccc(Cl)cc2)N1C(=O)N1CCN(CCCS(C)(=O)=O)CC1
Homo sapiens [1]
  inhibition: Active
[2]
  Kd: 14 µM

## c1c[nH]cn1
Homo sapiens [1]
  inhibition: inactive
Homo sapiens [3]
  inhibition: inactive

## CCOc1cc(C(C)(C)C)ccc1C1=NCCN1C(=O)N1CCN(CCCS(C)(=O)=O)CC1
Homo sapiens [4]
  inhibition: inactive
Homo sapiens [1]
  inhibition: inactive

## CC1=N[C@@H](c2ccccc2)[C@@H](c2ccccc2)N1
Homo sapiens [5]
  inhibition: inactive
Homo sapiens [3]
  inhibition: inactive

## CCOc1cc(C(C)(C)C)ccc1-c1ncc[nH]1
Homo sapiens [5]
  inhibition: inactive
Homo sapiens [3]
  inhibition: inactive

## CC1=N[C@@H](c2ccc(Cl)cc2)[C@@H](c2ccc(Cl)cc2)N1
[2]
  Kd: 26 µM
Homo sapiens [6]
  inhibition: Active

## CCOc1cc(C(C)(C)C)ccc1C1=N[C@@](C)(c2ccc(Cl)cc2)[C@@](C)(c2ccc(Cl)cc2)N1
[2]
  Kd: 20 µM
Homo sapiens [6]
  inhibition: Active

## CCOc1cc(C(C)(C)C)ccc1C1=NCC(c2ccc(Cl)cc2)N1 (configuration not stated)
Homo sapiens [4]
  inhibition: inactive
Homo sapiens [5]
  inhibition: Active

## CCOc1cc(C(C)(C)C)ccc1C1=N[C@@](C)(c2ccc(Cl)cc2)[C@@](C)(c2ccc(Cl)cc2)N1C(=O)N1CCN(CCCS(C)(=O)=O)CC1 [RO-5045337]
[2]
  Kd: 0.22 µM
Homo sapiens [7]
  inhibition: Active

## CCOc1cc(C(C)(C)C)ccc1C1=NC(c2ccccc2)CN1C(=O)N1CCN(CCCS(C)(=O)=O)CC1 (configuration not stated)
Homo sapiens [1]
  inhibition: Active
[2]
  Kd: 1000 µM

## Clc1ccccc1
Homo sapiens [1]
  inhibition: inactive
Homo sapiens [3]
  inhibition: inactive
